Reference: paper PMC7005675 (Molecular Cell, 2020)

Target: T1, RsiG (Streptomyces venezuelae, UniProt F2RFR7)
T1 sequence (F2RFR7 1-199): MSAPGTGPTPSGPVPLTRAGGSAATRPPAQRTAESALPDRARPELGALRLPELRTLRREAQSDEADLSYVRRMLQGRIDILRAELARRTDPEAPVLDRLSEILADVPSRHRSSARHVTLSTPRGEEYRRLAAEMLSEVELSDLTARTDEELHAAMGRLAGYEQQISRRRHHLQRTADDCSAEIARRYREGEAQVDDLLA
Assay: fluorescence polarization
Format: binding
Details: labelled compound; 150 mM NaCl, 25 mM Tris-HCl pH 7.5, 25°C; 1 nM probe

Question: For “2′-O-(6-[Fluoresceinyl]aminohexylcarbamoyl)-cyclic diguanosine monophosphate [2′-Fluo-AHC-c-di-GMP]”, which Kd is on record?
Answer: 6.5 ± 1.5 µM
